Values of other authors in patent US20100104547A1, “TOPICAL COMPOSITION FOR THE TREATMENT OF ALLERGENIC EFFECTS” (priority 2005, published 2010).

How the values were obtained:
[1] = topical application
[2] = mice, bee venom intradermal; test substance by intradermal injection or topical application

pancreatin
reducing the itch associated with mosquito and black fly bites [1]: effective

subtilisin
reducing the itch associated with mosquito and black fly bites [1]: effective

B1: papain (protein, UniProt P00784 134-345, looked up)
Papain: IPEYVDWRQKGAVTPVKNQGSCGSCWAFSAVVTIEGIIKIRTGNLNEYSEQELLDCDRRSYGCNGGYPWSALQLVAQYGIHYRNTYPYEGVQRYCRSREKGPYAAKTDGVRQVQPYNEGALLYSIANQPVSVVLEAAGKDFQLYRGGIFVGPCGNKVDHAVAAVGYGPNYILIKNSWGTGWGENGYIRIKRGTGNSYGVCGLYTSSFYPVKN
notes: proteolytic enzyme, commonly in the form of meat tenderizer
reducing the itch associated with mosquito and black fly bites [1]: effective | inhibition of lesion development [2]: no marked inhibition
